According to patent publication US7449567B2, “Isolation and identification of mouse and human transcription control elements associated with cytochrome expression” (Xenogen Corporation, priority 2001, dated 2008):
Where two headings read alike, the source gives them in different places.

How the values were obtained:
hPXR = target: T1, hPXR (Homo sapiens, UniProt O75469); conditions: cited from earlier work
T1 sequence (O75469 1-434): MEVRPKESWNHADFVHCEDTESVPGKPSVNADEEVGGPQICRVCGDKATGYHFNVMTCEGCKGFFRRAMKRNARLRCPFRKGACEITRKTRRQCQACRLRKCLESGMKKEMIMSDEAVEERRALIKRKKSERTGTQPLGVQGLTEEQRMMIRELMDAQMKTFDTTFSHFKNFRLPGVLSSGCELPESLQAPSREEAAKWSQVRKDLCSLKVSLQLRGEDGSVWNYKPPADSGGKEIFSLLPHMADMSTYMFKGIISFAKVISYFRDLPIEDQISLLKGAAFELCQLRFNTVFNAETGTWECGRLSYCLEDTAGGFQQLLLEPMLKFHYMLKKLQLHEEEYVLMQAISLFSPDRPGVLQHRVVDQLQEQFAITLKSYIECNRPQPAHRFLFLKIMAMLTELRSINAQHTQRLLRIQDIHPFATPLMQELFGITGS

[1] = test system: CYP3A4-luc transgene (13 kb human CYP3A4 promoter); conditions: mouse, in vivo
Method: General methods for evaluating the animal lines were as follows. Tg founders were bred to wild-type FvB mice to generate F1 mice. A female transgenic founder was bred to a wild-type FvB male and a male transgenic founder was bred to a few wild-type FvB females.
A Luciferin stock solution of 30 mg/ml was prepared in sterile PBS.
The route of administration for the drugs and for luciferin was IP. The dose of reagent administration of luciferin substrate and drugs was as follows. Dose of luciferin: 150 mg/kg of a 30 mg/ml luciferin stock was injected IP five minutes before imaging in the IVIS™ (Xenogen Corporation, Alameda, Calif.) system. […] DMSO was administrated as a vehicle control.
Following luciferin administration the animals were anesthetized using gas anesthesia (Isoflurane) and placed in an IVIS™ box (Xenogen Corporation, Alameda, Calif.) for imaging. All animals were imaged before and after chemical administration, and imaged at high resolution (binning 2) for 10 seconds or 1 minute, for males and females, respectively.
NT is the non-treated control. Before each imaging session, mice were injected i.p. with 150 mg/kg luciferin. […] Measurements on each mouse were performed as described above. […] Measurements on each mouse were performed as described above.

[2] = cell culture, Xie et al. 2000, Goodwin et al. 1999

Structure (SMILES)	induction of CYP3A4 expression via hPXR (hPXR; [2])	induction of the transgene CYP3A4-luc [1]	induction of CYP3A4 expression via hPXR (hPXR)	induction of the transgene CYP3A4-luc ([1]; FVB (CYP3A4-luc transgenic, line #82))
CC(=O)[C@H]1[C@H](C#N)C[C@H]2[C@@H]3CC=C4C[C@@H](O)CC[C@]4(C)[C@H]3CC[C@@]21C [PCN, 5-pregnene-3b-OL-20-ONE-16a-Carbonitrile]	weaker inducers	induced the transgene CYP3A4-luc better than other three compounds	–	–
CC(=O)[C@H]1CC[C@H]2[C@@H]3CC=C4C[C@@H](O)CC[C@]4(C)[C@H]3CC[C@]12C [Preg, pregnenolone]	–	all drugs except for Preg induced the transgene	weaker inducers	–
CCC1(c2ccccc2)C(=O)NC(=O)NC1=O [Phenob, phenobarbitol]	–	induced the transgene to various degrees	relatively better inducers of CYP3A4 expression	–
Clc1ccccc1C(c1ccccc1)(c1ccccc1)n1ccnc1 [Clotrim, clotrimazole]	relatively better inducers of CYP3A4 expression	–	–	induced the transgene CYP3A4-luc better than other three compounds
